From ChEMBL document CHEMBL1141379, “Selective inhibitory activity against MAO and molecular modeling studies of 2-thiazolylhydrazone derivatives” (J Med Chem, 2007) come the findings set out here.

What is called Ki is the dissociation constant of the complex between target and ligand, obtained from inhibition or displacement. Lower therefore signals higher affinity.

Each structure is given as a SMILES string.

This test concerns the target T1, Amine oxidase [flavin-containing] A (Bos taurus, UniProt P21398).
T1 sequence (P21398 whole entry): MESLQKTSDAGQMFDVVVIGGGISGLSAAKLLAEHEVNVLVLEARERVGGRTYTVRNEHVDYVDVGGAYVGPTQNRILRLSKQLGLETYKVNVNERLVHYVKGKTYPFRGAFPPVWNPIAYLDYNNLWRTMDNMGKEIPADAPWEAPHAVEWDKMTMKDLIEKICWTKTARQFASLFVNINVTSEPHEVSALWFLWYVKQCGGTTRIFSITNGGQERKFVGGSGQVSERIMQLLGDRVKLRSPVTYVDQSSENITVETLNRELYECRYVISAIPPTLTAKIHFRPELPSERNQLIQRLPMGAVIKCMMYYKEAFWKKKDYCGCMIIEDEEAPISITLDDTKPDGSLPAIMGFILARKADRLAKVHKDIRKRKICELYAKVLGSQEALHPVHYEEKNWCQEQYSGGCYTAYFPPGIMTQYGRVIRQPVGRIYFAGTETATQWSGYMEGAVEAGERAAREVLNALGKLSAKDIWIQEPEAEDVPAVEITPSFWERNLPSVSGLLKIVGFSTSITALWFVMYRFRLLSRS
Briefly: Inhibition of bovine brain mitochondria MAOA.

The molecule `Cc1csc(N/N=C/c2ccccc2)n1` gave a Ki of 7.24 nM. As to `Clc1ccc(/C=N/Nc2nc(-c3ccccc3)cs2)c(Cl)c1`, the Ki was 93.3 nM. Take `COc1ccc(/C=N/Nc2nc(-c3ccccc3)cs2)cc1`: the Ki was 50.1 nM. `Cc1csc(N/N=C/c2ccccc2C)n1` showed a Ki of 35.5 nM. The molecule `Cc1csc(N/N=C/c2ccc(Cl)cc2Cl)n1` had a Ki of 12 nM. With `COc1ccc(/C=N/Nc2nc(-c3ccccc3)cs2)cc1OC`, the affinity corresponds to a Ki of 30.2 nM. Compared with the last molecule, the Ki is about 2.5-fold higher. The molecule `Clc1ccc(/C=N/Nc2nc(-c3ccccc3)cs2)cc1` showed an inhibition constant (Ki) of 100 nM. With `COc1ccc(/C=N/Nc2nc(C)cs2)cc1OC`, the Ki is 13.2 nM. Under `C(=N\Nc1nc(-c2ccccc2)cs1)/c1ccccc1` stands 1200 nM; under `COc1ccc(/C=N/Nc2nc(C)cs2)cc1`, 19.1 nM. On to `Cc1csc(N/N=C/c2ccc(Cl)cc2)n1`, for which the affinity corresponds to a Ki of 38 nM.
